Measured values published in the NIST ThermoML archive (doi:10.1021/je7000182).

Experiment: xn = mol fraction of the nth substance listed
Conditions: for mass density: 101 kPa, Liquid

CC(C)=O [acetone] + Cc1ccccc1
Conditions	mass density [kg/m3]	surface tension liquid-gas [mN/m]
288.15 K, x1 = 0.1	866.62	28.54
288.15 K, x1 = 0.2	861.43	27.86
288.15 K, x1 = 0.3	855.6	27.32
288.15 K, x1 = 0.4	849.5	26.98
288.15 K, x1 = 0.5	842.16	26.58
288.15 K, x1 = 0.6	834.94	25.91
288.15 K, x1 = 0.6999	826.67	25.22
288.15 K, x1 = 0.8	817.43	24.68
288.15 K, x1 = 0.9	807.56	24.24
288.15 K, x1 = 1	795.65	24.34
293.15 K, x1 = 0.1	861.94	–
293.15 K, x1 = 0.2	856.62	–
293.15 K, x1 = 0.3	850.69	–
293.15 K, x1 = 0.4	844.49	–
293.15 K, x1 = 0.5	837.08	–
293.15 K, x1 = 0.6	829.76	–
293.15 K, x1 = 0.6999	821.37	–
293.15 K, x1 = 0.8	812.03	–
293.15 K, x1 = 0.9	802.05	–
293.15 K, x1 = 1	790.04	–
298.15 K, x1 = 0.1	857.19	27.42
298.15 K, x1 = 0.2	851.77	26.78
298.15 K, x1 = 0.3	845.76	26.27
298.15 K, x1 = 0.4	839.43	25.87
298.15 K, x1 = 0.5	831.96	25.26
298.15 K, x1 = 0.6	824.52	24.69
298.15 K, x1 = 0.6999	816.05	24.14
298.15 K, x1 = 0.8	806.58	23.46
298.15 K, x1 = 0.9	796.47	23.01
298.15 K, x1 = 1	784.33	23.02
303.15 K, x1 = 0.1	852.43	–
303.15 K, x1 = 0.2	846.92	–
303.15 K, x1 = 0.3	840.8	–
303.15 K, x1 = 0.4	834.37	–
303.15 K, x1 = 0.5	826.83	–
303.15 K, x1 = 0.6	819.3	–
303.15 K, x1 = 0.6999	810.71	–
303.15 K, x1 = 0.8	801.09	–
303.15 K, x1 = 0.9	790.88	–
303.15 K, x1 = 1	778.57	–
308.15 K, x1 = 0.1	847.66	26.25
308.15 K, x1 = 0.2	842.06	25.78
308.15 K, x1 = 0.3	835.83	25.21
308.15 K, x1 = 0.4	829.3	24.88
308.15 K, x1 = 0.5	821.64	24.2
308.15 K, x1 = 0.6	814	23.59
308.15 K, x1 = 0.6999	805.29	22.92
308.15 K, x1 = 0.8	795.56	22.51
308.15 K, x1 = 0.9	785.21	21.83
308.15 K, x1 = 1	772.76	21.72
313.15 K, x1 = 0.1	842.86	–
313.15 K, x1 = 0.2	837.17	–
313.15 K, x1 = 0.3	830.83	–
313.15 K, x1 = 0.4	824.2	–
313.15 K, x1 = 0.5	816.43	–
313.15 K, x1 = 0.6	808.68	–
313.15 K, x1 = 0.6999	799.88	–
313.15 K, x1 = 0.8	790.01	–
313.15 K, x1 = 0.9	779.49	–
313.15 K, x1 = 1	766.91	–
318.15 K, x1 = 0.1	838.04	24.97
318.15 K, x1 = 0.2	832.23	24.75
318.15 K, x1 = 0.3	825.82	24.09
318.15 K, x1 = 0.4	819.06	23.74
318.15 K, x1 = 0.5	811.19	22.82
318.15 K, x1 = 0.6	803.32	22.67
318.15 K, x1 = 0.6999	794.39	21.7
318.15 K, x1 = 0.8	784.39	21.34
318.15 K, x1 = 0.9	773.74	20.48
318.15 K, x1 = 1	760.99	20.38
323.15 K, x1 = 0.1	833.22	–
323.15 K, x1 = 0.2	827.29	–
323.15 K, x1 = 0.3	820.75	–
323.15 K, x1 = 0.4	813.89	–
323.15 K, x1 = 0.5	805.91	–
323.15 K, x1 = 0.6	797.91	–
323.15 K, x1 = 0.6999	788.88	–
323.15 K, x1 = 0.8	778.74	–
323.15 K, x1 = 0.9	767.94	–
323.15 K, x1 = 1	755.02	–
328.15 K, x1 = 0.1	828.34	23.63
328.15 K, x1 = 0.2	822.32	23.48
328.15 K, x1 = 0.3	815.67	23.04
328.15 K, x1 = 0.4	808.7	22.7
328.15 K, x1 = 0.5	800.59	21.99
328.15 K, x1 = 0.6	792.48	21.06
328.15 K, x1 = 0.6999	783.31	20.65
328.15 K, x1 = 0.8	773.01	19.95
328.15 K, x1 = 0.9	762.08	19.32
328.15 K, x1 = 1	748.98	19.15

CC(C)=O [acetone] + O
surface tension liquid-gas [mN/m], Pendant drop shape
Conditions	288.15 K	298.15 K	308.15 K	318.15 K	328.15 K
x1 = 0.0099	62.59	61.04	59.26	58.11	57.74
x1 = 0.05	47.85	46.14	44.78	43.74	42.86
x1 = 0.0999	40.32	39.07	37.88	36.87	35.71
x1 = 0.15	35.72	34.41	33.13	32.02	30.76
x1 = 0.1999	33.71	32.21	30.74	29.4	28.31
x1 = 0.2999	30.6	29.35	28.08	26.98	25.68
x1 = 0.4	29.19	27.98	26.78	25.47	24.23
x1 = 0.4999	28.24	27.04	25.82	24.53	23.28
x1 = 0.5999	27.29	26.03	24.81	23.63	22.26
x1 = 0.6999	26.71	25.44	24.25	22.94	21.73
x1 = 0.7999	25.78	24.51	23.2	22.02	20.9
x1 = 0.8999	25.06	23.8	22.56	21.19	20.19
x1 = 1	24.34	23.02	21.72	20.38	19.15

mass density [kg/m3]
Conditions	288.15 K	293.15 K	298.15 K	303.15 K	308.15 K	313.15 K	318.15 K	323.15 K	328.15 K
x1 = 0.0099	994.9	993.87	992.55	991	989.16	987.26	985.07	982.76	980.29
x1 = 0.05	981.27	979.34	977.21	974.89	972.41	969.77	966.73	963.1	959.94
x1 = 0.1	965.81	962.9	959.83	956.64	953.33	949.91	946.37	942.68	938.87
x1 = 0.15	950.41	946.79	943.05	939.23	935.32	931.31	927.21	923	918.72
x1 = 0.2	935.61	931.54	927.37	923.1	918.78	914.37	909.89	905.19	900.64
x1 = 0.3	907.7	903.09	898.35	893.54	888.68	883.75	878.76	873.7	868.56
x1 = 0.4	884.77	879.81	874.8	869.68	864.53	859.33	854.06	848.74	843.31
x1 = 0.5	863.71	858.56	853.35	848.07	842.72	837.31	831.85	826.32	820.73
x1 = 0.6	845.83	840.53	835.15	829.71	824.22	818.66	813.05	807.35	801.6
x1 = 0.7	830.7	825.3	819.8	814.25	808.63	802.96	797.22	791.42	785.55
x1 = 0.8	818.04	812.56	806.97	801.32	795.62	789.84	784.05	778.16	772.2
x1 = 0.9	805.86	800.27	794.6	788.88	783.11	777.29	771.4	765.46	759.81
x1 = 1	795.65	790.04	784.33	778.57	772.76	766.91	760.99	755.02	748.98
